Entries after “also recorded” stand apart in the source; their conditions may differ. Like-named read-outs stand apart in the source and are kept apart here.
Experiments:
mPAO [1] = target: T1, mPAO (Mus musculus, UniProt Q8C0L6); assay: Oxygraph assay of O2 consumption, progress-curve analysis; assay type: biochemical, murine; conditions: progress curves before and after catalase addition
T1 construct: the full length cDNA of mpao was released by Nde I and Hind III treatment, and ligated into Nde I and Hind III sites of pET29c; made in house; host or cells: E. coli BL21 GOLD (DE3), plasmid pET-MPAO (pET29c)
T1 sequence (Q8C0L6 whole entry E184K/L285S/R416L/R417S/Q419R/E451A/V490I/S491G/V497A): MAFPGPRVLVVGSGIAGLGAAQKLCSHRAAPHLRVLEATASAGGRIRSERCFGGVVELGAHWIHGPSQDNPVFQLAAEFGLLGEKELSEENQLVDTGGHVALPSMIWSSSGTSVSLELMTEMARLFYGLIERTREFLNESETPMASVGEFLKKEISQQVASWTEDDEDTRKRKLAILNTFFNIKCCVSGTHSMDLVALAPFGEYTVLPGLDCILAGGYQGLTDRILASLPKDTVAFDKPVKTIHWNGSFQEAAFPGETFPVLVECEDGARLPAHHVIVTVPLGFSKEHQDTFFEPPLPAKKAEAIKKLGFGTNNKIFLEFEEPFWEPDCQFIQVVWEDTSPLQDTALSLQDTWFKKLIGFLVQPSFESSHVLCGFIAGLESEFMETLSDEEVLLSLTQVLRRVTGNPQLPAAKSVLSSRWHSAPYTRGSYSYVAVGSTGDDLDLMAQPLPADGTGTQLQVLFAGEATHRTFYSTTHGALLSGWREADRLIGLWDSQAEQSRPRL
Method: Some assays (oxygraph assays) were carried out by directly monitoring O2 consumption in air-saturated buffer ([O2]=0.237 mM) or buffer saturated with pure O2 at 30° C. ([O2]=1.12 mM). The depletion of O2 was detected with a Yellow Springs Instruments, Inc. Model 53 Oxygen Monitor equipped with a Clark electrode. […] Following a published procedure (Goudar et al., Biochim. Biophys. Acta 1429:377-383 [1999]), the data were fitted to the integrated Mechaelis-Menton equation. The analyses were done using Maple VI (Windows 2000) software (Waterloo Maple, Inc.) running on a PC computer. […] Inhibition by the H2O2, formed as a product of polyamine oxidation by mPAO, was assessed by addition of 2 μL of a 30 mg/mL (30,000 units/mg) solution of catalase, after [O2] reached zero.
The catalase immediately converted each mole of H2O2 to 0.5 mol of O2 (since [O2]=1.12 mM for pure O2-saturated buffer, then [O2]=0.56 mM immediately after catalase addition). In the presence of catalase, O2 depletion should occur at 0.5× the rate as it does in the absence of catalase (unless H2O2 inhibition is operating). With catalase present, each molecule of O2 will be converted eventually to H2O (4-electron equivalents), rather than to H2O2 (2-electron equivalents).

mPAO [2] = target: T1, mPAO; assay: Steady-state kinetic spectrophotometric assay of mPAO (H2O2 formation); assay type: biochemical, murine; conditions: for kcat′ / KS′: apparent value; for kcat′: air-saturated 50 mM KH2PO4/KOH buffer pH 7.6, [O2] 237 μM; for inhibitor of mPAO (oxidation of N^1-acetyl-Spm) / substrate for mPAO (oxidation by mPAO): in words; for kcat′/KS′: specificity constant, air-saturated buffer pH 7.6; for KS′: air-saturated buffer pH 7.6, [O2] 237 μM
Method: In this example the methods used to examine mPAO steady state kinetics are described. Spectrophotometric assays were done at 30° C. in a potassium phosphate buffer (e.g., 50 mM KH2PO4/KOH buffer, pH 7.6 saturated in air or in pure oxygen), using a published procedure which provides a continuous monitor of the H2O2 produced (Holt et al., Anal. Biochem. 244:384-392 [1997]). These assays were done in 1 mL cuvette with 0.8 mL of solution containing varying amounts of substrate, 1 mM vanillic acid, 0.5 mM 4-aminopyrine, 4 units of horseradish peroxidase, and 0.1-0.2 μg of mPAO. The reactions were monitored at 498 nm with a UVIKON 840 spectrophotometer (KONTRON Instruments) for the formation of the quinoneimine dye (ε498=4,650 M^−1cm^−1 at pH 7.6), the condensation product of vanillic acid and oxidized 4-aminopyrine. The latter is produced from 4-aminopyrine by the action of horseradish peroxidase that has been oxidized by H2O2 (Holt et al., supra [1997]). The assays were done at 25° C. by varying the concentration of the amine substrate, while the oxygen concentration in the assay solution was constant at the air-saturating level of 237 μM. The data were fit, by nonlinear regression to steady-state kinetic equations (McIntire et al., Biochem. J. 228:325-335 [1985]), which provided the values, and standard deviations thereof, for kcat′, KS′ and kcat′/KS′ (=Q, the specificity constant). [formula]
The dissociation constants, KD, for these and other amines were estimated in the following manner. It was assumed that the competition was competitive, since in the presence of the inhibitors, at a saturating N^1-acetyl-Spm concentration, the rate of the reaction was equal to the value of the true kcat. It was also assumed that the mechanism is of the ping-pong type. Thus, the applicable steady-state equation is (Segal, Enzyme Kinetics, John Wiley & Sons, New York, pp. 606-625 [1975]): [formula]
On the left, kcat and KS are the steady-state parameters for N^1-acetyl-Spm (S), and I and KI (=KD), represent the inhibitor and its inhibition constant, respectively. KIO and KO are the inhibition constant and Michaelis constant for O2, respectively. The equation can be converted to the expression on the right side when: [formula]
The expressions for kcat′ and KS′ (at the fixed [O2]=[…]) are the same as those when the inhibitor is absent. Since the values of kcat′ and KS″ were predetermined, inhibition assays were carried out where [S]≈KS″, which, in the absence of I, would give a rate, ν≈0.5×kcat″. In these assay, for each inhibitor, [I] was adjusted so the apparent rate was somewhat less then 0.5 kcat′. In this situation, after substitution and rearrangement, Equation 1 reduces to: [formula]
Since [I] and kcat′ are known, and ν is the measured rate in the presence of the inhibitor, the value of KI′ can be estimated. It is assumed that these apparent KI′ are good approximations of the true KI (=KD) values. […] The estimated KI′ values provided in Table 1, are the averages of these four values. If the reactions of the polyamine substrates and O2 with mPAO obeys a ping-pong type mechanism, the apparent values, kcat′/KS′, are equal to the true kcat/KS values.

[3] = apparent, inhibition of N^1-acetyl-Spm oxidation, average of four inhibitor concentrations, read-out: KI′ = KD

Row | SMILES | kcat′ (mPAO [2]) | Ki (mPAO [2]; [3]) | inhibitor of mPAO (oxidation of N^1-acetyl-Spm) (mPAO [2]) | substrate for mPAO (oxidation by mPAO) (mPAO [2]; listed as N-(3-Aminopropyl)-1,10-diaminodecane) | substrate for mPAO (oxidation by mPAO) (mPAO [2]; listed as N-(3-aminopropyl)-1,10-diaminodecane) | kcat′/KS′ (mPAO [2]) | KS′ (mPAO [2]) | KI′ = KD (mPAO [2]; apparent, inhibition of N^1-acetyl-Spm oxidation, average of four inhibitor concentrations) | inhibition of mPAO by product H2O2 (mPAO [1]) | substrate for mPAO (oxidation by mPAO) (mPAO [2]) | Ki (mPAO [2])
1 | OO [H2O2, hydrogen peroxide] |  |  |  |  |  |  |  |  | inhibition does not occur |  | 
2 | NCCCCCCCCCCNCCCN [N-(3-aminopropyl) 1,10 decanediamine, N-(3-Aminopropyl)-1,10-diaminodecane] | 0 s⁻¹ | 35 µM | good inhibitor of mPAO | not oxidized by mPAO | not to be a PAO substrate | 0 M⁻¹ s⁻¹ |  |  |  |  | 
3 | CCNCCCNCCCCNCCCNCC [N^1,N^12-diethyl-Spm, N^1,N^12-bis[ethyl]spermine] | 0.415 ± 0.012 s⁻¹ |  |  |  |  | (2.77 ± 0.13) × 10^3 M^−1sec^−1 | 150 ± 10 µM |  |  | very good substrates | 
4 | NCCCCNCCCN [Spd, spermidine] | 0 s⁻¹ | 190 µM | inhibitors |  |  | 0 M⁻¹ s⁻¹ | 0 µM |  |  | poor substrates for mPAO | 
5 | N=C(N)NCCCCCCCCCCNC(=N)N [synthalin, 1,10-bisguanidinodecane] | 0 s⁻¹ |  | extremely potent inhibitor of mPAO |  |  | 0 M⁻¹ s⁻¹ | 0 µM |  |  |  | 0.05 µM

More lines, main results first:

Row | kcat′ (mPAO [2]) | Ki (mPAO [2]; [3]) | inhibitor of mPAO (oxidation of N^1-acetyl-Spm) (mPAO [2]) | substrate for mPAO (oxidation by mPAO) (mPAO [2]; listed as N-(3-Aminopropyl)-1,10-diaminodecane) | substrate for mPAO (oxidation by mPAO) (mPAO [2]; listed as N-(3-aminopropyl)-1,10-diaminodecane) | kcat′/KS′ (mPAO [2]) | KS′ (mPAO [2]) | KI′ = KD (mPAO [2]; apparent, inhibition of N^1-acetyl-Spm oxidation, average of four inhibitor concentrations) | SMILES | inhibition of mPAO by product H2O2 (mPAO [1]) | substrate for mPAO (oxidation by mPAO) (mPAO [2]) | Ki (mPAO [2])
6 | 1.93 ± 0.03 s⁻¹ |  |  |  |  | (1.27 ± 0.03) × 10^4 M^−1sec^−1 | 157 ± 7 µM |  | CCNCCCNCCCNCCCNCC [N^1,N^11-diethyl-nor-Spm, N^1,N^11-bis[ethyl]norspermine] |  | very good substrates | 
7 | 0 s⁻¹ | 70 µM |  |  |  | 0 M⁻¹ s⁻¹ | 0 µM |  | CC(=O)NCCCCNCCCN [N^8-acetyl-Spd] |  | not oxidized by mPAO | 
8 | 0 s⁻¹ | 1000 µM | inhibitors |  |  | 0 M⁻¹ s⁻¹ | 0 µM |  | NCCCCN [Put, putrescine] |  |  | 
9 |  | 750 µM | inhibitors |  |  |  | 716 ± 33 µM |  | NCCCNCCCCNCCCN [Spm, spermine] |  | poor mPAO substrate; also recorded: poor substrates for mPAO | 
10 | 0 s⁻¹ |  | not |  |  | 0 M⁻¹ s⁻¹ | 0 µM | ∞ (infinity) | NCc1ccccc1 [benzylamine] |  |  | 

From US20050143472A1, “Novel treatment for pathologies associated with oxidative damage” (priority 2002, published 2005)
